Test results as given in paper PMC8190750 (Cell Research, 2021).
Numbered stars: 1 amine (or outer) side, 2 acyl side, 3 side chain; on linkers, the order of the positions; unused ones are H or OH. Bridge positions count the residues as written; N and C are the ends. Square brackets hold non-standard residues; d marks the D form. Peptide text beside a SMILES is read from it. * marks the point of attachment. X1 = CC[C@H](C)[C@@H](N[*:1])[C@@H](O)CC(=O)O[C@H](C(=O)[C@H](C)C(=O)[*:2])C(C)C; NMeY = CN[C@@H](Cc1ccc(O)cc1)C(=O)O; dNMeL = CN[C@H](CC(C)C)C(=O)O; Pyruvoyl = CC(=O)C(=O)*

What was measured:
2-E channels = 2-E channels (Severe acute respiratory syndrome coronavirus 2, UniProt P0DTC4); format: biochemical, SARS-CoV-2
SARS-CoV-2 [1] = settings: in vivo; cited from earlier work
SARS-CoV-2 [2] = settings: in vivo; cited from earlier work; remark: listed apart in the source
SARS-CoV-2 [3] = settings: in vivo; cited from earlier work; remark: listed apart in the source
[4] = test system: 2-E-induced cell death in Vero E6 cells; format: cell-based, African green monkey; settings: read-out: IC50 Cell protection
SARS-CoV-2 [5] = format: cell-based; settings: read-out: IC50 Anti-virus

Sequence of 2-E channels (P0DTC4 whole entry, looked up): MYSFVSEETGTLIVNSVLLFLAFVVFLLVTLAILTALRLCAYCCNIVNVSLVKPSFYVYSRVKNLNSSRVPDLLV

5-(N, N-hexamethylene)-amiloride [HMA]
concentration with inhibitory activity on 2-E channels (2-E channels): ≥ 50 µM
cytotoxicity (in words) (Vero E6 cells): strong cytotoxicity

COC(=O)C1=C(C)NC(C)=C(C(=O)OC)C1c1ccccc1[N+](=O)[O-] [Nifedipine]
effects on 2-E channels (2-E channels): negligible effects

CC[N+](CC)(CC)CC [Tetraethylammonium]
effects on 2-E channels (2-E channels): negligible effects

NC1=N[C@H](O)[C@H]2[C@H]3O[C@]4(O)O[C@@H]([C@@H](O)[C@@]2(N1)[C@@H]4O)[C@]3(O)CO [Tetrodotoxin]
effects on 2-E channels (2-E channels): negligible effects

NC12CC3CC(CC(C3)C1)C2 [amantadine]
concentration with inhibitory activity on 2-E channels (2-E channels): ≥ 50 µM

CN[C@H]1C(=O)N[C@@H]2Cc3ccc(cc3)Oc3cc4cc(c3O[C@@H]3O[C@H](C(=O)O)[C@@H](O)[C@H](O)[C@H]3NC(=O)CCCCCCCCC(C)C)Oc3ccc(cc3Cl)[C@@H](O)[C@@H]3NC(=O)[C@H](NC(=O)[C@@H]4NC(=O)[C@@H](NC2=O)c2cc(cc(O)c2Cl)Oc2cc1ccc2O)c1ccc(O)c(c1)-c1c(O[C@H]2O[C@H](CO)[C@@H](O)[C@H](O)[C@@H]2O)cc(O)cc1[C@@H](C(=O)NCCCN(C)C)NC3=O [dalbavancin]
prophylactic effects on viral replication and lung injuries (SARS-CoV-2 [1]): good prophylactic effects

CCN(CCO)CCCC(C)Nc1ccnc2cc(Cl)ccc12 (stereo not shown) [hydroxychloroquine]
virus loading or titers in the respiratory tissues (SARS-CoV-2 [2]): failed to reduce virus loading or titers in the respiratory tissues

OC(c1cc(C(F)(F)F)nc2c(C(F)(F)F)cccc12)C1CCCCN1 (stereo not shown) [mefloquine]
prophylactic effects on viral replication and lung injuries (SARS-CoV-2 [1]): good prophylactic effects

CC[C@H](C)[C@H]1NC(=O)[C@@H](NC(=O)[C@@H](CC(C)C)N(C)C(=O)[C@@H]2CCCN2C(=O)C(C)=O)[C@@H](C)OC(=O)[C@H](Cc2ccc(OC)cc2)N(C)C(=O)[C@@H]2CCCN2C(=O)[C@H](CC(C)C)NC(=O)[C@@H](C)C(=O)[C@H](C(C)C)OC(=O)C[C@@H]1O [plitidepsin] (Pyruvoyl-P[dNMeL]T[X1]LP[NMeY](Me); ester 3-C)
prophylactic effects on viral replication and lung injuries (SARS-CoV-2 [1]): good prophylactic effects

CCC(CC)COC(=O)[C@H](C)N[P@](=O)(OC[C@H]1O[C@@](C#N)(c2ccc3c(N)ncnn23)[C@H](O)[C@@H]1O)Oc1ccccc1 [remdesivir]
virus loading in the respiratory tract (SARS-CoV-2 [3]): cannot reduce the virus loading in the respiratory tract

Berbamine [BE-12]
IC50 [4]: 34.3 µM
IC50 (SARS-CoV-2 [5]): 14.5 µM
